In US7498029B2, “Photoimmunotherapies for cancer using combination therapies” (The General Hospital Corporation, priority 2001, dated 2009):
Entries after “also recorded” stand apart in the source; their conditions may differ.

What was measured:
[1] = Solubility and stability in DMSO/aqueous solutions and on storage; format: physicochemical; settings: DMSO/aqueous solution
Akt-1 = assay: EGF-induced Akt-1 phosphorylation, Western blot in OVCAR-5 cells; format: cell-based, human
Method: (§1) Twenty-four hours after photodynamic treatment as described above, OVCAR 5 cells in the groups to be stimulated with EGF were incubated for 15 min with 10 ng/ml EGF in prewarmed culture medium. The groups that were not stimulated with EGF only received prewarmed culture medium. After the 15 minute incubation, cells were kept on ice and cell lysates were collected in RIPA buffer (containing 0.1% SDS and 1% NP-40). After protein determination by a modified Lowry assay (Biorad, Hercules, Calif.), the proteins were run on SDS-PAGE, transferred to a polyvinylidene diflouride (PVDF) membrane (Immobilon-P, Millipore, Bedford, Mass.) and probed with the first antibody. To detect the phosphorylation of the EGFR, the anti-phosphotyrosine antibody 4G10 (New England Biolabs; Beverly, Mass.) was used. A secondary goat anti-mouse antibody, coupled to horseradish peroxidase (Biorad), was used in combination with a chemiluminescence kit (Amersham, Arlington Heights, Ill.) to visualize the specific bands. Western blots were reprobed with anti-actin (Santa Cruz Biotechnology, Santa Cruz, Calif.) to control for equal loading.
(§2) Two important pathways which are regulated by EGFR are the PI3K-Akt/PKB-1 and the Ras-MAPK/ERK pathway. These signaling molecules are implicated in a variety oncogenic pathways. […]

NIH:OVCAR-5 cells [2] = assay: Tumoricidal response, intraperitoneal ovarian carcinoma xenograft, tumor burden at day 21; settings: for Tumor Burden: necropsy day 21; for Survival Fraction: tumor burden relative to no treatment
Method: NIH:OVCAR-5 cells were obtained from the Fox Chase Cancer Institute (Philadelphia, Pa.). Cells were grown in RPMI-1640 media (Mediatech Inc, Herndon, Va.) supplemented with 10% heat-inactivated fetal calf serum (GIBCO Life Technologies, Grand Island, N.Y.), and 100 U/ml penicillin and 100 μg/ml streptomycin. The cells were maintained in an incubator at 37° C. in an atmosphere of 5% CO2. At the time of NIH:OVCAR-5 cell injection, mice were given a numeric ear tag. Animals were anesthetized before the cell injection with 0.03 ml of a ketamine/xylazine mixture (ketamine, 120 mg/kg; xylazine, 15 mg/kg).
Intraperitoneal (“i.p.”) PDT in the nude mice was performed as previously described (Molpus et al., 1996a). On day 10 and 20 after tumor cell injection, mice in BPD treatment and/or control groups 2, 4, 6, and 8 were injected with 0.25 mg/kg body weight of liposomal BPD-MA i.p. 90 minutes prior to light exposure. Light was not administered to animals in groups 1, 2, 5, and 6. BPD-MA solutions were prepared immediately prior to use in sterile PBS (total of 1 ml). All work involving BPD-MA was performed in subdued lighting.
Animals which had to be illuminated were injected with 2 mL of a 0.1% intralipid solution i.p. prior to illumination to enhance light scattering. Animals were anesthetized with 0.03 ml of a ketamine/xylazine mixture (ketamine, 35 mg/ml; xylazine, 5 mg/ml). A solid state diode laser was used for illumination (BWF 690-1, B&W TEK, Newark, Del.), which delivers monochromatic light (690+/−5 nm) to overlap closely the absorption maximum of BPD-MA (690 nm), at a maximum power from the diode of 1 W. Alternatively, an argon-pumped dye laser (Coherent) was used to deliver 690 nm light i.p. via a cylindrically diffusing fiberoptic tip (8.0 mm×0.4 mm). The fiber, connected to the Argon-pumped dye laser or the solid state diode laser was introduced into the peritoneal cavity of a supine anesthetized animal via a centrally placed 22-gauge catheter traversing the abdominal cavity. A total of 20 J of light was delivered, at a fluence rate of 100-200 mw/cm^2. Of the total light energy, one fourth (5 J) was delivered to each i.p. quadrant over equivalent time periods. At the completion of the treatment, the mice were allowed to recover in an animal warmer until they awoke and resumed normal activity.
Two endpoints were studied. The first endpoint studied was short-term tumor weight. The second endpoint studied was long-term survival. In the short-term tumor weight studies, animals were sacrificed on day 21 to assess acute treatment effects. Animals were also carefully examined for the presence of distinct extra-abdominal metastasis. Representative tissue samples were examined pathologically via hematoxylin and eosin staining.
Tumoricidal response was assessed by comparing the extent of gross residual disease in treated animals to the extent of disease in untreated controls. Using the distribution pattern of the tumor in the OVCAR-5 human xenograft mouse model, which 20 was previously described (Molpus et al., 1996b), the sites where tumor was consistently present were dissected.

[3] = tested on: EGFR-overexpressing A-431 cells; assay: Phototoxicity and competition studies, MTT assay; format: cell-based, human; settings: incubation periods much shorter than 6 hours
Method: Preliminary phototoxicity studies were conducted using EGFR-overexpressing A-431 cells.
Cells were plated in 2 ml of media in 35 mm tissue culture dishes at densities such that the cells reached approximately 60 to 80% confluence at the end of a three-day growth period. Following an initial period of at least 14 to 20 hours, which allowed for cells to attach and begin dividing, incubation with PICs or free BPD was initiated by replacing the original 2 ml of media with 2 to 4 ml of medium containing PIC or free BPD. Incubations were done at 37° C. and were begun with respect to the end of the three-day growth period. At the end of the three-day growth period, the medium containing PIC or free BPD was removed. Cells were washed once with 2 ml of DPBS, and 2 ml of fresh medium was added back to each dish. Cells were then immediately irradiated with the requisite light dose. Following irradiation, cells were incubated overnight at 37° C. and then assayed for viability by the calorimetric MTT assay (Mosmann, 1983). Except for the intended light dose, care was taken to protect the cells from light exposure at all times.
The radiation source was a dye laser pumped by an argon ion laser (models CR-599 and Innova 100, respectively, Coherent Inc., Palo Alto, Calif.). […]

OVCAR-5 cells = assay: PDT/PIT phototoxicity, MTT assay, OVCAR-5 cells; format: cell-based, human; settings: with light, dose giving 50% survival after 24 hours, compared to control cells
Method: (§3) This light was focused to a spot of 3.5 cm diameter, which corresponded to a power density of circa 40 mW/cm^2.
(§4) To determine the survival fraction of cells after treatment, the 3-(4,5-dimethylthiazol-2-yl)-2,5-diphenyltetrazolium bromide (“MTT”) assay, which measured mitochondrial dehydrogenase activity, was used. Cells were incubated with 0.5 mg/ml MTT for 1 hour to measure its reduction by mitochondrial dehydrogenases.
The MTT assay was performed 24 and 72 hours after treatment.

NIH:OVCAR-5 cells [4] = assay: Long term survival, intraperitoneal ovarian carcinoma xenograft; format: in vivo, mice
Text: A different group of animals was utilized to investigate survivability. Animals with rapid tumor progression leading to uncontrollable ascites or systemic illness were sacrificed. Animals were sacrificed based on the following parameters: loss of more than 15% body weight, severe pain not relieved by analgesics, self-mutilating behavior, inability or unwillingness to eat or drink, and weight gain of more than 20% body weight. At the time of necropsy, samples were weighed and collected as previously described.

EGFR = target: T1, EGFR (Homo sapiens, UniProt P00533); assay: EGF-induced EGFR phosphorylation, Western blot in OVCAR 5 cells; format: cell-based; settings: 10 ng/ml EGF 15 min
T1 construct: endogenous in cells; host or cells: OVCAR 5 cells
Method: as §1

MAPK/ERK = assay: EGF-induced MAPK/ERK phosphorylation, Western blot in OVCAR-5 cells; format: cell-based, human
Method: as §1, §2

CHO-ERBB2 cells = assay: PDT/PIT phototoxicity, MTT assay, CHO-ERBB2 cells; format: cell-based; settings: 140 nM, light dose of 2 J/cm^2, MTT 24 hours after illumination
Method: as §3, §4

[5] = Body weight loss of xenograft mice; format: in vivo; settings: before tumor cell injection to day 21
Text: Animals were weighed before tumor cell injection, and before sacrifice at day 21.

[6] = Fluorescence decay and relative fluorescence quantum yield; format: physicochemical; settings: 50% DMSO/50% aqueous solution
Method: In order to assess how conjugation to the antibody affected the ability of BPD to generate phototoxic species, relative fluorescence quantum yields and fluorescence decay signals for free BPD and for the various BPD PIC preparations were measured. Although fluorescence is a photophysical property of the singlet excited state of a photosensitizer, fluorescence quantum yields and decay times generally correlate with a photosensitizer's ability to generate phototoxic species. This correlation stems from the fact that a photosensitizer's phototoxic quantum yield usually correlates with its triplet quantum yield. […]
Fluorescence properties were measured in 50% DMSO/50% aqueous solutions in order to overcome the tendency of BPD to aggregate in a purely aqueous solution. Relative fluorescence quantum yields for free BPD and for various PIC samples with varying BPD:antibody molar loading ratios were calculated from the ratios of the slopes of fluorescence emission intensity versus absorbance plots. The fluorescence emission intensity versus absorbance plot for a given sample was generated by measuring the emission intensities of a series of dilute solutions prepared from a concentrated stock solution of the sample. […] Fluorescence emission intensity was measured as the area under the fluorescence emission peak in the 650 to 800 nm range. […]

[7] = no light, BPD […] i.p. days 10, 20, C225 0.5 mg i.p. days 11, 14, 17, 19
[8] = with light (20 J, 690 nm i.p.), same doses

BPD Verteporfin
DMSO content above which free BPD goes from predominantly aggregated to predominantly disaggregated monomeric state [1]: > 40% | EGF-induced phosphorylation of Akt-1 (Akt-1; alone, no light): responded like control cells | EGF-induced phosphorylation of Akt-1 (Akt-1; plus light): did not have an inhibitory effect; also recorded: not by treatment with BPD plus light | DL (NIH:OVCAR-5 cells [2]; Steel-Peckham interaction of the components in the formula, with light (hv)): 0.493 | Effect (NIH:OVCAR-5 cells [2]; Steel-Peckham interaction, with light (hv)): synergistic | lnSF (NIH:OVCAR-5 cells [2]; no light): −0.4084 | Tumor Burden (NIH:OVCAR-5 cells [2]; [7]): 469 mg | Survival Fraction (NIH:OVCAR-5 cells [2]; no light): 0.69 | lnSF (NIH:OVCAR-5 cells [2]; with light): −0.962 | Tumor Burden (NIH:OVCAR-5 cells [2]; [8]): 261 mg | tumor burden as % of the no treatment control group (NIH:OVCAR-5 cells [2]; with light, day 21): 38% | tumor burden in the bowel mesentery (NIH:OVCAR-5 cells [2]; with light, day 21): statistically significant reduction in tumor burden | Survival Fraction (NIH:OVCAR-5 cells [2]; with light): 0.38 | phototoxic cell killing [3]: greater than 90% | increase in MTT activity between the 24 and 72 hours time-point (OVCAR-5 cells): 15% | survival compared with untreated mice (NIH:OVCAR-5 cells [4]; comparison of survival curves, PDT and combination with light, C225 alone without): significantly longer survival rates | mice still alive after 6 months (180 days) (NIH:OVCAR-5 cells [4]; with light, 9 mice per group): 10% | 50% alive (NIH:OVCAR-5 cells [4]; with light, days on which 50% of the mice have died): 36 (CI 32-90) days | EGF-induced EGFR phosphorylation (EGFR; 140 nM alone, no light): reacted like control cells | EGF-induced EGFR phosphorylation (EGFR; 140 nM plus light): did not inhibit; also recorded: no inhibitory effect | EGF-induced phosphorylation of MAPK/ERK (MAPK/ERK; alone, no light): responded like control cells | EGF-induced phosphorylation of MAPK/ERK (MAPK/ERK; plus light): did not have an inhibitory effect; also recorded: not by treatment with BPD plus light | viability (CHO-ERBB2 cells): less than 20% | Weight Loss In Grams [5, 7]: 2.01 Grams | Weight Loss In Grams [5, 8]: 2.14 Grams | weighted-average fluorescence decay lifetime ([6]; emission 700 nm): 6.02 ns | relative fluorescence quantum yield ([6]; excitation 428 nm): 1.00
